Source: publication PMC3997483, “Aminostyrylbenzofuran Directly Reduces Oligomeric Amyloid-β and Reverses Cognitive Deficits in Alzheimer Transgenic Mice” (PLoS ONE, 2014)

Tested on: SD rats
Test: 2-week repeated oral dose toxicity study
Format: in vivo
Conditions: for A / G ratio / ALP / ALT / AST / Albumin / B / C ratio / BUN / CHO / CK / CRE / Glucose / K^+ / LDH / Na^+ / T-Bil / TG (triglyceride) / TP: serum
Procedure: KMS88009 was orally administered once a day by gavage for 14 consecutive days at dose level of 0 (vehicle), 100, 300 and 1,000 mg/kg (n = 5 per group). […] Organs were collected at necropsy; adrenal, kidney, thymus, spleen, heart, lung, liver, testis and brain. The absolute organ weights were measured and the organs-to-body weight ratios were calculated. Blood samples for hematological evaluation were collected from vein of animals under ether anesthesia. Food was withheld overnight before necropsy and blood collections. EDTA was used as an anticoagulant for hematology samples. White blood cell (WBC), red blood cell (RBC), hemoglobin concentration (HGB), hematocrit (HCT), mean corpuscular volume (MCV), mean corpuscular hemoglobin (MCH), mean corpuscular hemoglobin concentration (MCHC), cell hemoglobin concentration mean (CHCM), cell hemoglobin (CH), red cell distribution width (RDW), hemoglobin distribution width (HDW), platelet count (PLT), mean platelet volume (MPV) and reticulocyte were measured by a hematological autoanalyzer (ADVIA 120, Bayer, USA). To get the serum for biochemical analyses, blood samples in a separation tube were centrifuged at 4,000 rpm for 10 min on the day of necropsy. The serum was kept frozen at -70°C until analysis. Sodium citrate was used as an anticoagulant for biochemical analyses. Serum biochemical parameters including aspartate aminotransferase (AST), alanine aminotransferase (ALT), alkaline phosphatase (ALP), total bilirubin (T-Bil), albumin, total protein (TP), albumin/globulin ratio (A/G ratio), glucose, total cholesterol (CHO), triglyceride (TG), lactate dehydrogenase (LDH), creatine kinase (CK), blood urea nitrogen (BUN), creatinine (CRE), blood urea nitrogen/creatinine ratio (B/C ratio), Na^+, K^+ and Cl^- were evaluated by an autoanalyzer (Shimadzu CL-7200, Shimadzu Co., Japan).
All data for single and 2-week repeated oral dose toxicity studies were expressed as the mean ± SD Difference between control and treated groups were evaluated with one-way analysis of variance (ANOVA) followed by Dunnett's test. Value P<0.05 was taken as being statistically significant. Statistical analyses were performed using GraphPad Prism software (USA).

[1] = rats PO 1,000 mg/kg/day, 2 weeks

For `COc1ccc2cc(C=Cc3ccc(N(C)C)cc3)oc2c1` [KMS88009, 6-methoxy-2-(4-dimethylaminostyryl) benzofuran], the Body weight (rats PO 300 mg/kg/day, day 11) was 317.6 ± 17.0 g, the Body weight (rats PO 300 mg/kg/day, day 14) was 338.5 ± 16.9 g and the “Abnormal gross findings of necropsy (changed animals / total)” value [1] was 0 / 5. The Basophils [1] was 0.01 ± 0.01 x10^3/μL, the “Body Weight (at necropsy)” value [1] was 319.932 ± 12.441 g and the Brain weight [1] was 1.922 ± 0.009 g. The CH [1] was 20.0 ± 0.5 pg, the CHCM [1] was 34.1 ± 0.4 g/dL and the Eosinophils [1] was 0.05 ± 0.04 x10^3/μL. For the same compound, the HDW [1] was 2.29 ± 0.09 g/dL, the Heart weight [1] was 1.074 ± 0.065 g and the Hematocrit [1] was 42.1 ± 2.2%. The Hemoglobin [1] was 14.0 ± 0.8 g/dL, the LUC [1] was 0.06 ± 0.04 x10^3/μL and the Left adrenal weight [1] was 0.025 ± 0.004 g. For the same compound, the Left kidney weight [1] was 1.342 ± 0.067 g, the Left testis weight [1] was 1.366 ± 0.053 g and the Liver weight [1] was 11.173 ± 0.202 g. For the same compound, the Lung weight [1] was 1.279 ± 0.094 g, the Lympocytes [1] was 6.50 ± 3.11 x10^3/μL and the MCH [1] was 19.6 ± 0.5 pg. For the same compound, the MCHC [1] was 33.3 ± 0.6 g/dL, the MCV [1] was 59.0 ± 1.0 fL and the MPV [1] was 7.58 ± 0.3 fL. For the same compound, the Monocytes [1] was 0.13 ± 0.05 x10^3/μL, the “Mortality (dead animals / total number of animals)” value [1] was 0 / 5 and the Neutrophils [1] was 1.08 ± 0.46 x10^3/μL. For the same compound, the Platelet [1] was 1325 ± 141 x10^3/μL, the RBC [1] was 7.14 ± 0.27 x10^6/μL and the RDW [1] was 12.1 ± 0.2%. For the same compound, the “Rate body weight / brain” value [1] was 0.601 ± 0.024%, the “Rate body weight / heart” value [1] was 0.336 ± 0.014% and the “Rate body weight / left adrenal” value [1] was 0.008 ± 0.001%. The “Rate body weight / left kidney” value [1] was 0.420 ± 0.025%, the “Rate body weight / left testis” value [1] was 0.427 ± 0.025% and the “Rate body weight / liver” value [1] was 3.495 ± 0.093%. The “Rate body weight / lung” value [1] was 0.400 ± 0.030%, the “Rate body weight / right adrenal” value [1] was 0.008 ± 0.001% and the “Rate body weight / right kidney” value [1] was 0.418 ± 0.030%. For the same compound, the “Rate body weight / right testis” value [1] was 0.427 ± 0.021%, the “Rate body weight / spleen” value [1] was 0.234 ± 0.031% and the “Rate body weight / thymus” value [1] was 0.194 ± 0.017%. The Retic [1] was 307.4 ± 32.8 x10^3/μL, the Right adrenal weight [1] was 0.026 ± 0.003 g and the Right kidney weight [1] was 1.334 ± 0.067 g. For the same compound, the Right testis weight [1] was 1.365 ± 0.036 g, the Spleen weight [1] was 0.749 ± 0.112 g and the Symptomatic signs [1] was “-”. The Thymus weight [1] was 0.621 ± 0.073 g, the WBC [1] was 7.83 ± 3.64 x10^3/μL and the Body weight (rats PO 1,000 mg/kg/day, day 1) was 228.3 ± 6.5 g. For the same compound, the Body weight (rats PO 1,000 mg/kg/day, day 4) was 251.1 ± 8.6 g, the Body weight (rats PO 1,000 mg/kg/day, day 8) was 296.4 ± 14.2 g and the Body weight (rats PO 1,000 mg/kg/day, day 11) was 323.0 ± 15.8 g. For the same compound, the Body weight (rats PO 1,000 mg/kg/day, day 14) was 346.6 ± 16.1 g, the “A / G ratio” value (rats PO 100 mg/kg/day, 2 weeks) was 0.82 ± 0.08 and the ALP (rats PO 100 mg/kg/day, 2 weeks) was 723.4 ± 40.3 IU/L. It also gave an ALT (rats PO 100 mg/kg/day, 2 weeks) of 37.3 ± 6.2 IU/L, an AST (rats PO 100 mg/kg/day, 2 weeks) of 152.3 ± 47.1 IU/L and an Albumin (rats PO 100 mg/kg/day, 2 weeks) of 2.52 ± 0.18 g/dL. For the same compound, the “B / C ratio” value (rats PO 100 mg/kg/day, 2 weeks) was 28.3 ± 6.1, the BUN (rats PO 100 mg/kg/day, 2 weeks) was 12.2 ± 1.5 mg/dL and the CHO (rats PO 100 mg/kg/day, 2 weeks) was 79.4 ± 15.2 mg/dL. It also gave a CK (rats PO 100 mg/kg/day, 2 weeks) of 258.4 ± 54.3 IU/L, a CRE (rats PO 100 mg/kg/day, 2 weeks) of 0.44 ± 0.05 mg/dL and a Glucose (rats PO 100 mg/kg/day, 2 weeks) of 159.2 ± 23.5 mg/dL. For the same compound, the “K^+” value (rats PO 100 mg/kg/day, 2 weeks) was 4.58 ± 0.43 mmol/L, the LDH (rats PO 100 mg/kg/day, 2 weeks) was 168.0 ± 36.4 IU/L and the “Na^+” value (rats PO 100 mg/kg/day, 2 weeks) was 140.5 ± 1.2 mmol/L. For the same compound, the T-Bil (rats PO 100 mg/kg/day, 2 weeks) was 0.01 ± 0.01 mg/dL, the “TG (triglyceride)” value (rats PO 100 mg/kg/day, 2 weeks) was 47.0 ± 29.5 mg/dL and the TP (rats PO 100 mg/kg/day, 2 weeks) was 5.66 ± 0.17 g/dL. The “A / G ratio” value (rats PO 300 mg/kg/day, 2 weeks) was 0.77 ± 0.06, the ALP (rats PO 300 mg/kg/day, 2 weeks) was 755.6 ± 165.7 IU/L and the ALT (rats PO 300 mg/kg/day, 2 weeks) was 32.9 ± 4.7 IU/L. The AST (rats PO 300 mg/kg/day, 2 weeks) was 149.2 ± 24.3 IU/L, the Albumin (rats PO 300 mg/kg/day, 2 weeks) was 2.4 ± 0.00 g/dL and the “B / C ratio” value (rats PO 300 mg/kg/day, 2 weeks) was 29.6 ± 8.1. It also gave a BUN (rats PO 300 mg/kg/day, 2 weeks) of 12.3 ± 2.8 mg/dL, a CHO (rats PO 300 mg/kg/day, 2 weeks) of 81.8 ± 11.6 mg/dL and a CK (rats PO 300 mg/kg/day, 2 weeks) of 222.0 ± 56.7 IU/L. For the same compound, the CRE (rats PO 300 mg/kg/day, 2 weeks) was 0.42 ± 0.04 mg/dL, the Glucose (rats PO 300 mg/kg/day, 2 weeks) was 148.0 ± 23.5 mg/dL and the “K^+” value (rats PO 300 mg/kg/day, 2 weeks) was 4.73 ± 0.26 mmol/L. The LDH (rats PO 300 mg/kg/day, 2 weeks) was 127.2 ± 47.0 IU/L, the “Na^+” value (rats PO 300 mg/kg/day, 2 weeks) was 139.8 ± 1.8 mmol/L and the T-Bil (rats PO 300 mg/kg/day, 2 weeks) was 0.02 ± 0.01 mg/dL. The “TG (triglyceride)” value (rats PO 300 mg/kg/day, 2 weeks) was 29.4 ± 7.2 mg/dL, the TP (rats PO 300 mg/kg/day, 2 weeks) was 5.56 ± 0.23 g/dL and the “A / G ratio” value [1] was 0.76 ± 0.04. For the same compound, the ALP [1] was 736.0 ± 109.1 IU/L, the ALT [1] was 32.7 ± 7.8 IU/L and the AST [1] was 162.0 ± 19.1 IU/L. The Albumin [1] was 2.44 ± 0.05 g/dL, the “B / C ratio” value [1] was 29.7 ± 2.0 and the BUN [1] was 11.9 ± 0.8 mg/dL. It also gave a CHO [1] of 80.4 ± 18.2 mg/dL, a CK [1] of 260.2 ± 62.0 IU/L and a CRE [1] of 0.4 ± 0.00 mg/dL. For the same compound, the Glucose [1] was 141.3 ± 15.6 mg/dL, the “K^+” value [1] was 4.87 ± 0.22 mmol/L and the LDH [1] was 126.0 ± 53.9 IU/L. For the same compound, the “Na^+” value [1] was 140.1 ± 1.2 mmol/L, the T-Bil [1] was 0.02 ± 0.01 mg/dL and the “TG (triglyceride)” value [1] was 30.8 ± 7.7 mg/dL. It also gave a TP [1] of 5.62 ± 0.19 g/dL.
